“Also recorded” adds a separate entry of the source.
Tests used:
Assay type in all cases: cell-based
COLO-205 = experiment: Cell proliferation (cell count by microscopy), single agents and combinations; details: Homo sapiens; COLO-205, 72 h, concentration giving 50% of cell counts relative to DMSO
Method: (§1) The compounds were dissolved in 100% DMSO (Sigma, Catalog number D2650) at concentrations of 20 mM and stored at −20° C. until use.
(§2) Colorectal cancer cell lines used for this study were obtained, cultured and processed from commercial vendors ATCC, CellBank Australia, DMSZ, ECACC, and HSRRB (Table 1). All cell line media were supplemented with 10% FBS (HyClone, Catalog number SH30071.03).
(§3) Cell lines were cultured in 37° C. and 5% CO2 incubator and expanded in T-75 flasks. In all cases cells were thawed from frozen stocks, expanded through≥1 passage using 1:3 dilutions, counted and assessed for viability using a ViCell counter (Beckman-Coulter) prior to plating. […] All cell lines were determined to be free of mycoplasma contamination as determined by a PCR detection methodology performed at Idexx Radil (Columbia, Mo., USA) and correctly identified by detection of a panel of SNPs.
(§4) The debris counts were subtracted from raw nuclei counts.
(§5) The compound's effect on cell proliferation was calculated from the cell counts of the treatments relative to the cell counts of the negative control (DMSO), in FIG. 1 and FIG. 3 denoted as ‘Normalized cell count’ (=‘xnorm’) on the y-axis. […] The model input were inhibition values per drug dose:
(§6) I=1−xnorm • I: inhibition • xnorm: normalized cell count (median of three replicates)
(§7) To favor combination effects at high inhibition the residuals were weighted with the observed inhibition at the same dose point. The overall combination score C of a drug combination is the sum of the weighted residuals over all concentrations:
(§8) C=ΣCone (Idata*(Idata−Imodel)) • Idata: measured inhibition Imodel: inhibition according to HSA null hypothesis
(§9) Robust combination z-scores (zC) were calculated as the ratio of the treatments' combination scores C and the median absolute deviation (mad) of non-interacting combinations:
(§10) zC=C/mad(Czero) • Czero: combination scores of non-interacting combinations zC is an indicator for the strength of the combination with:
(§11) In order to assess the effect of the triple combination all individual compounds, all three pair wise combinations, and the triple combination were tested in the same experiment.
(§12) (Boston Bioproducts, Catalog number BM-220).

COLO-320 = experiment: as above; details: Homo sapiens; COLO-320, 72 h, concentration giving 50% of cell counts relative to DMSO
Method: as §1, §2, §3, §4, §5, §6, §7, §8, §9, §10, §11, §12

DLD-1 = experiment: as above; details: Homo sapiens; DLD-1, 72 h, concentration giving 50% of cell counts relative to DMSO
Method: as §1, §2, §3, §4, §5, §6, §7, §8, §9, §10, §11, §12

GP2d = experiment: as above; details: 72 h, concentration giving 50% of cell counts relative to DMSO
Method: as §1, §2, §3, §4, §5, §6, §7, §8, §9, §10, §11, §12

HCT-116 = experiment: as above; details: Homo sapiens; HCT-116, 72 h, concentration giving 50% of cell counts relative to DMSO
Method: as §1, §2, §3, §4, §5, §6, §7, §8, §9, §10, §11, §12

HT-29 = experiment: as above; details: Homo sapiens; HT-29, 72 h, concentration giving 50% of cell counts relative to DMSO
Method: as §1, §2, §3, §4, §5, §6, §7, §8, §9, §10, §11, §12

LIM2551 = experiment: as above; details: LIM2551, 72 h, concentration giving 50% of cell counts relative to DMSO
Method: as §1, §2, §3, §4, §5, §6, §7, §8, §9, §10, §11, §12

LS-180 = experiment: as above; details: Homo sapiens, LS180; LS-180, 72 h, concentration giving 50% of cell counts relative to DMSO
Method: as §1, §2, §3, §4, §5, §6, §7, §8, §9, §10, §11, §12

LS411N = experiment: as above; details: Homo sapiens, LS-411N, 72 h, concentration giving 50% of cell counts relative to DMSO
Method: as §1, §2, §3, §4, §5, §6, §7, §8, §9, §10, §11, §12

LoVo = experiment: as above; details: Homo sapiens, 96 h, concentration giving 50% of cell counts relative to DMSO
Method: as §1, §2, §3, §4, §5, §6, §7, §8, §9, §10, §11, §12

NCI-H508 = experiment: as above; details: Homo sapiens; NCI-H508, 72 h, concentration giving 50% of cell counts relative to DMSO
Method: as §1, §2, §3, §4, §5, §6, §7, §8, §9, §10, §11, §12

OUMS-23 = experiment: as above; details: OUMS-23, 72 h, concentration giving 50% of cell counts relative to DMSO
Method: as §1, §2, §3, §4, §5, §6, §7, §8, §9, §10, §11, §12

RKO = experiment: as above; details: Homo sapiens, 72 h, concentration giving 50% of cell counts relative to DMSO
Method: as §1, §2, §3, §4, §5, §6, §7, §8, §9, §10, §11, §12

SW480 = experiment: as above; details: Homo sapiens; SW480, 72 h, concentration giving 50% of cell counts relative to DMSO
Method: as §1, §2, §3, §4, §5, §6, §7, §8, §9, §10, §11, §12

SW837 = experiment: as above; details: Homo sapiens; SW837, 72 h, concentration giving 50% of cell counts relative to DMSO
Method: as §1, §2, §3, §4, §5, §6, §7, §8, §9, §10, §11, §12

[1] = test system: 15 colorectal cancer cell lines; experiment: Cell proliferation, summary over the cell line panel; details: single agent, across the cell lines in which growth was inhibited
Method: as §1, §2, §4
as §5, with “dose: […]” for “dose:”
as §12

SMILES | IC50 (COLO-205) | IC50 (COLO-320) | IC50 (DLD-1) | IC50 (GP2d) | IC50 (HCT-116) | IC50 (HT-29) | IC50 (LIM2551) | IC50 (LS-180) | IC50 (LS411N) | IC50 (LoVo) | IC50 (NCI-H508) | IC50 (OUMS-23) | IC50 (RKO) | IC50 (SW480) | IC50 (SW837) | IC50 values, magnitude in words [1]
CN(C)C(=O)c1cc2cnc(Nc3ccc(N4CCNCC4)cn3)nc2n1C1CCCC1 [LEE011, 7-Cyclopentyl-2-(5-piperazin-1-yl-pyridin-2-ylamino)-7H-pyrrolo[2,3-d]pyrimidine-6-carboxylic acid dimethylamide] | 1100 nM | 2800 nM | 4100 nM | 4500 nM | 4500 nM | 800 nM | 1300 nM | 1800 nM | 2100 nM | 800 nM | 700 nM | > 10000 nM | 1500 nM | 1600 nM | > 10000 nM | mostly micromolar; also recorded: sub-micromolar to micromolar
CC(=O)Nc1cccc(-n2c(=O)n(C3CC3)c(=O)c3c(Nc4ccc(I)cc4F)n(C)c(=O)c(C)c32)c1 [Trametinib, N-{3-[3-cyclopropyl-5-(2-fluoro-4-iodo-phenylamino)6,8-dimethyl-2,4,7-trioxo-3,4,6,7-tetrahydro-2H-pyrido[4,3-d]pyrimidin-1-yl]phenyl}acetamide] | 4 nM | > 300 nM | 153 nM | > 300 nM | 38 nM | 4 nM | 5 nM | 18 nM | 7 nM | 7 nM | 7 nM | > 300 nM | 21 nM | 55 nM | 51 nM | nanomolar to sub-micromolar
Cc1nc(NC(=O)N2CCC[C@H]2C(N)=O)sc1-c1ccnc(C(C)(C)C(F)(F)F)c1 [BYL719, (S)-Pyrrolidine-1,2-dicarboxylic acid 2-amide 1-({4-methyl-5-[2-(2,2,2-trifluoro-1,1-dimethyl-ethyl)-pyridin-4-yl]-thiazol-2-yl}-amide)] | > 10000 nM | 8300 nM | > 10000 nM | 500 nM | 9800 nM | 2700 nM | 2300 nM | > 10000 nM | > 10000 nM | > 10000 nM | 500 nM | > 10000 nM | 3900 nM | > 10000 nM | > 10000 nM | mostly micromolar

— patent US20190365741A1, “COMBINATIONS OF THE CDK4/6 INHIBITOR LEE011 AND THE MEK1/2 INHIBITOR TRAMETINIB, OPTIONALLY FURTHER COMPRISING THE PI3K INHIBITOR BYL719 TO TREAT CANCER” (Novartis AG, priority 2015, published 2019)
